Reference: patent US6107274A, “Piperazines as inhibitors of fructose-1,6-bisphosphatase (FBPase)” (Ontogen Corporation, priority 1999, dated 2000)

target: T1, fructose-1,6-bisphosphatase (FBPase) (Homo sapiens, UniProt P09467); experiment: FBPase inhibition assay (Taketa and Pogell): conversion of fructose-1,6-bisphosphate to fructose-6-phosphate, NADPH formation at 340 nm via coupled reactions; assay type: biochemical; conditions: concentration of inhibitor giving 50% inhibition of FBPase activity; read-out: IC50
T1 sequence (P09467 1-338): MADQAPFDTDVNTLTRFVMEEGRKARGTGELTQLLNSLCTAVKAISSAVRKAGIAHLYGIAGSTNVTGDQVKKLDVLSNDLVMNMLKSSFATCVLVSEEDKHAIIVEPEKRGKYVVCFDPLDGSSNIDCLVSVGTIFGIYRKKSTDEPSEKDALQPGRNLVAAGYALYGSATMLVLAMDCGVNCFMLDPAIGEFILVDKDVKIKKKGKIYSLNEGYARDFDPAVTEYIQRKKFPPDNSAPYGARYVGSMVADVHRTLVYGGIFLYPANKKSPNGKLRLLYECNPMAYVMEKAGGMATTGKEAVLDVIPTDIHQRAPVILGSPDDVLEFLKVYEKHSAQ
Method: The above compounds are assayed utilizing the procedure described by Taketa and Pogell (J. Biol. Chem. 240:651 (1965)), wherein the conversion of fructose-1,6-bisphosphate to fructose-6-phosphate is measured by monitoring the conversion of NADP to NADPH through two coupled reactions mediated by phosphoglucose isomerase and glucose-6-phosphate dehydrogenase. The increase in NADPH concentration during the course of the reactions was determined by measuring the increase in absorption at 340 nm. The controls used in the assay were adenosine monophosphate CAMP, 1(50 1.4±0.5 μM) and fructose 2.6-bisphosphate (1(50 2.9±0.9 μM). The results obtained of the above compounds are as follows (Table 2):
In Table 2, IC50 represents the concentration of inhibitor, which would result in 50% inhibition of FBPase activity. The Roman numbers designate the compounds' numbers as depicted in Formula A for which inhibition of FBPase activity has been measured.

Row | IC50 [µM] | Compound
1 | 34 | CCCC(C(=O)NCCc1ccc(O)cc1)N1C(=O)[C@@H]2Cc3ccccc3CN2C(=O)[C@@H]1Cc1ccccc1 (some centres unmarked) [Compound IX, 2-(3-Benzyl-1,4-dioxo-1,3,4,6,11,11a-hexahydro-pyrazino[1,2-b]isoquinolin-2-yl)-pentanoic acid [2-(4-hydroxy-phenyl)-ethyl]-amide]
2 | 0.37 | N#Cc1ccc(C(C(=O)NCCc2ccc(O)cc2)N2C(=O)C3Cc4ccc(O)cc4CN3C(=O)[C@@H]2CC2CCCCC2)cc1 (some centres unmarked) [Compound I, 2-(4-Cyano-phenyl)-2-(3-cyclohexylmethyl-8-hydroxy-1,4-dioxo-1,3,4,6,11,11a-hexahydro-pyrazino[1,2-b]isoquinolin-2-yl)-N-[2-(4-hydroxy-phenyl)-ethyl]-acetamide]
3 | 45 | CCCC(C(=O)NCCc1ccc(O)cc1)N1C(=O)[C@@H]2Cc3ccccc3CN2C(=O)[C@@H]1Cc1ccc(O)cc1 (some centres unmarked) [Compound XI, 2-[3-(4-Hydroxy-benzyl)-1,4-dioxo-1,3,4,6,11,11a-hexahydro-pyrazino[1,2-b]isoquinolin-2-yl]-pentanoic acid [2-(4-hydroxy-phenyl)-ethyl]-amide]
4 | 40 | CCCCCC(C(=O)NCCc1ccc(O)cc1)N1C(=O)[C@@H]2Cc3ccccc3CN2C(=O)[C@@H]1Cc1ccc(O)cc1 (some centres unmarked) [Compound X, 2-[3-(4-Hydroxy-benzyl)-1,4-dioxo-1,3,4,6,11,11a-hexahydro-pyrazino[1,2-b]isoquinolin-2-yl]-heptanoic acid [2-(4-hydroxy-phenyl)-ethyl]-amide]
5 | 34 | O=C(O)CCCCCNC(=O)C(c1ccc(Oc2ccccc2)cc1)N1C(=O)[C@H](Cc2ccccc2)NC(=O)[C@@H]1CC1CCCCC1 (some centres unmarked) [Compound XVI, 6-[2-(3-Benzyl-6-cyclohexylmethyl-2,5-dioxo-piperazin-1-yl)-2-(4-phenoxy-phenyl)-acetylamino]-hexanoic acid]
6 | 32 | NC(=O)c1ccc(C(C(=O)NCCc2ccc(F)cc2)N2C(=O)[C@@H]3Cc4ccccc4CN3C(=O)[C@@H]2CC2CCCCC2)cc1 (some centres unmarked) [Compound VIII, 4-{(3-Cyclohexylmethyl-1,4-dioxo-1,3,4,6,11,11a-hexahydro-pyrazino[1,2-b]isoquinolin-2-yl)-[2-(4-fluoro-phenyl)-ethylcarbamoyl]-methyl}-benzamide]
7 | 24 | O=C(O)c1ccc(CNC(=O)C(c2ccc(Oc3ccccc3)cc2)N2C(=O)[C@@H]3Cc4ccccc4CN3C(=O)[C@@H]2CC2CCCCC2)cc1 (some centres unmarked) [Compound XIV, 4-{[2-(3-Cyclohexylmethyl-1,4-dioxo-1,3,4,6,11,11a-hexahydro-pyrazino [1,2-b]isoquinolin-2-yl)-2-(4-phenoxy-phenyl)-acetylamino]-methyl}-benzoicacid]
8 | 8 | N#Cc1ccc(C(C(=O)NCCc2cccc(O)c2)N2C(=O)[C@@H]3Cc4ccccc4CN3C(=O)[C@@H]2CC2CCCCC2)cc1 (some centres unmarked) [Compound III, 2-(4-Cyano-phenyl)-2-(3-cyclohexylmethyl-1,4-dioxo-1,3,4,6,11,11a-hexahydro-pyrazino[1,2-b]isoquinolin-2-yl)-N-[2-(3-hydroxy-phenyl)-ethyl]-acetamide]
9 | 2.1 | N#Cc1ccc(C(C(=O)NCCc2ccc(O)cc2)N2C(=O)[C@@H]3Cc4ccccc4CN3C(=O)[C@@H]2CC2CCCCC2)cc1 (some centres unmarked) [Compound II, 2-(4-Cyano-phenyl)-2-(3-cyclohexylmethyl-1,4-dioxo-1,3,4,6,11,11a-hexahydro-pyrazino[1,2-b]isoquinolin-2-yl)-N-[2-(4-hydroxy-phenyl)-ethyl]-acetamide]
10 | 21 | CC(C)C[C@H]1C(=O)N2Cc3ccccc3C[C@H]2C(=O)N1C(C(=O)NCCc1ccc(O)cc1)c1ccc([N+](=O)[O-])cc1 (some centres unmarked) [Compound V, N-[2-(4-Hydroxy-phenyl)-ethyl]-2-(3-isobutyl-1,4-dioxo-1,3,4,6,11,11a-hexahydro-pyrazino[1,2-b]isoquinolin-2-yl)-2-(4-nitro-phenyl)-acetamide]
11 | 54 | CC(C)CC(C(=O)NCCc1ccc(O)cc1)N1C(=O)[C@@H]2Cc3ccccc3CN2C(=O)[C@@H]1Cc1ccc(O)cc1 (some centres unmarked) [Compound XII, 2-[3-(4-Hydroxy-benzyl)-1,4-dioxo-1,3,4,6,11,11a-hexahydro-pyrazino[1,2-b]isoquinolin-2-yl]-4-methyl-pentanoic acid [2-(4-hydroxy-phenyl)-ethyl]-amide]
12 | 37 | Cc1ccc(C(C(=O)NCCc2ccc(O)cc2)N2C(=O)[C@@H]3Cc4ccccc4CN3C(=O)[C@@H]2C)cc1 (some centres unmarked) [Compound XVII, N-[2-(4-Hydroxy-phenyl)-ethyl]-2-(3-methyl-1,4-dioxo-1,3,4,6,11,11a-hexahydro-pyrazino[1,2-b]isoquinolin-2-yl)-2-p-tolyl-acetamide]
13 | 95 | O=C(O)CCCCCNC(=O)C(c1ccc(Oc2ccccc2)cc1)N1C(=O)C(Cc2ccc([N+](=O)[O-])cc2)NC(=O)C1Cc1ccccc1 (centres unmarked) [Compound XVIII, 6-[2-[2-Benzyl-5-(4-nitro-benzyl)-3,6-dioxo-piperazin-1-yl]-2-(4-phenoxy-phenyl)-acetylamino]-hexanoic acid]
14 | 27 | O=C(O)c1ccc(CNC(=O)C(c2ccc3c(c2)-c2ccccc2C3)N2C(=O)C3Cc4ccccc4CN3C(=O)C2Cc2ccccc2)cc1 (centres unmarked) [Compound XV, 4-{[2-(3-Benzyl-1,4-dioxo-1,3,4,6,11,11a-hexahydro-pyrazino[1,2-b]isoquinolin-2-yl)-2-(9H-fluoren-3-yl)-acetylamino]-methyl}-benzoic acid]
15 | 15 | N#Cc1ccc(C(C(=O)NCCc2ccc(O)cc2)N2C(=O)[C@@H]3Cc4ccccc4CN3C(=O)[C@@H]2Cc2ccccc2)cc1 (some centres unmarked) [Compound IV, 2-(3-Benzyl-1,4-dioxo-1,3,4,6,11,11a-hexahydro-pyrazino[1,2-b]isoquinolin-2-yl)-2-(4-cyano-phenyl)-N-[2-(4-hydroxy-phenyl)-ethyl]-acetamide]
16 | 30 | CC(C)C[C@H]1C(=O)N2Cc3ccccc3C[C@H]2C(=O)N1C(C(=O)NCCc1ccc(O)cc1)c1ccc(C#N)cc1 (some centres unmarked) [Compound VII, 2-(4-Cyano-phenyl)-N-[2-(4-hydroxy-phenyl)-ethyl]-2-(3-isobutyl-1,4-dioxo-1,3,4,6,11,11a-hexahydro-pyrazino[1,2-b]isoquinolin-2-yl)-acetamide]
17 | 24 | O=C(NCCc1ccc(O)cc1)C(c1ccc([N+](=O)[O-])cc1)N1C(=O)[C@H](Cc2ccccc2)NC(=O)[C@@H]1CC1CCCCC1 (some centres unmarked) [Compound VI, 2-(3-Benzyl-6-cyclohexylmethyl-2,5-dioxo-piperazin-1-yl)-N-[2-(4-hydroxy-phenyl)-ethyl]-2-(4-nitro-phenyl)-acetamide]
18 | 57 | N#Cc1ccc(C(C(=O)NCc2ccc(C(=O)N3CCOCC3)cc2)N2C(=O)[C@@H]3Cc4ccccc4CN3C(=O)[C@@H]2CC2CCCCC2)cc1 (some centres unmarked) [Compound XIII, 2-(4-Cyano-phenyl)-2-(3-cyclohexylmethyl-1,4-dioxo-1,3,4,6,11,11a-hexahydro-pyrazino[1,2-b]isoquinolin-2-yl)-N-[4-(morpholine-4-carbonyl)-benzyl]-acetamide]

same assay, conditions: controls used in the assay; read-out: 1(50 [IC50] of the assay controls

Row | IC50 [µM] | Compound
19 | 1.4 ± 0.5 | Nc1ncnc2c1ncn2[C@@H]1O[C@H](COP(=O)(O)O)[C@@H](O)[C@H]1O [adenosine monophosphate, reference compound]
20 | 2.9 ± 0.9 | O=P(O)(O)OC[C@H]1O[C@@](CO)(OP(=O)(O)O)[C@@H](O)[C@@H]1O [fructose 2.6-bisphosphate, reference compound]
